Source: patent publication US20150315188A1, “COMPOUNDS AND METHODS FOR TREATMENT OF HYPERTENSION” (MEDIVATION TECHNOLOGIES, INC., priority 2012, published 2015)
Where “and” joins values, the source holds several entries; their conditions need not be identical. Identical values can stand only once.

Assays:
Set-up in all cases: purchased Milipore (Millipore)
[1] = target: T1, Human adrenergic α2A receptor (Homo sapiens, UniProt P08913); assay: Radioligand binding, adrenergic α2A (Protocol Group B); conditions: Protocol Group B; for Percentage inhibition of ligand binding, Adrenergic α2A (0.3 μM) / inhibition at 0.3 µM: 0.3 μM compound; for inhibition at 0.3 µM: read-out: Percentage inhibition of ligand binding, Adrenergic α2A (0.3 μM)
T1 sequence (P08913 1-465): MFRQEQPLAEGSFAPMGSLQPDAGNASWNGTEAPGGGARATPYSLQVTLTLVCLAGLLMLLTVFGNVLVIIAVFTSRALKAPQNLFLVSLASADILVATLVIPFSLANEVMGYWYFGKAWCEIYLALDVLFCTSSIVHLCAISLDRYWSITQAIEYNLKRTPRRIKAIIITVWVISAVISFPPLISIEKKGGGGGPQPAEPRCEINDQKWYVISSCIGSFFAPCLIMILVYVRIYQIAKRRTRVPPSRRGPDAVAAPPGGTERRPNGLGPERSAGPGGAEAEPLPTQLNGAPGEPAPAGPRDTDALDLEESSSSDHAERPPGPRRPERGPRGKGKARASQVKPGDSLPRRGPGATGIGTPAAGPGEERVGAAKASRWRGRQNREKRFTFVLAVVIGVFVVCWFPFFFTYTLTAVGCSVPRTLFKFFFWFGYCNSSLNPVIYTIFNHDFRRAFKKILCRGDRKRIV
Procedure: To evaluate the activity of compounds in radioligand binding assays, Human adrenergic α2A receptor obtained from recombinant cell membrane from Milipore. Binding experiments were carried out in Tris-HCl buffer (50 mM Tris-HCl buffer, pH 7.4, 5 mM Mgcl2, 1 mM Cacl2, 0.2% BSA) as recommended by Milipore. Compounds were incubated with 2 nM [^3H]MK-912 for 60 min at 25° C. Non-specific binding was estimated in the presence of 10 μM Rauwolscine. Receptor proteins were harvested on 0.33% PEI(poly-ethylenemine) soaked GFC filter mat, the specifically bound [^3H]MK-912 were counted to determine total binding. Compounds were screened at various concentrations, using 1% DMSO as vehicle. percent inhibition of specific binding was determined. Biochemical assay results are presented as the percent Inhibition of specific binding in Table B1b, or estimated Ki values in Table B1c.

[2] = target: T2, Human adrenergic α2B receptor (Homo sapiens, UniProt P18089); assay: Radioligand binding, adrenergic α2B (Protocol Group B); conditions: Protocol Group B; for Percentage inhibition of ligand binding, Adrenergic α2B (30 nM): 0.03 µM; for Percentage inhibition of ligand binding, Adrenergic α2B (10 nM): 0.01 µM
T2 sequence (P18089 1-450): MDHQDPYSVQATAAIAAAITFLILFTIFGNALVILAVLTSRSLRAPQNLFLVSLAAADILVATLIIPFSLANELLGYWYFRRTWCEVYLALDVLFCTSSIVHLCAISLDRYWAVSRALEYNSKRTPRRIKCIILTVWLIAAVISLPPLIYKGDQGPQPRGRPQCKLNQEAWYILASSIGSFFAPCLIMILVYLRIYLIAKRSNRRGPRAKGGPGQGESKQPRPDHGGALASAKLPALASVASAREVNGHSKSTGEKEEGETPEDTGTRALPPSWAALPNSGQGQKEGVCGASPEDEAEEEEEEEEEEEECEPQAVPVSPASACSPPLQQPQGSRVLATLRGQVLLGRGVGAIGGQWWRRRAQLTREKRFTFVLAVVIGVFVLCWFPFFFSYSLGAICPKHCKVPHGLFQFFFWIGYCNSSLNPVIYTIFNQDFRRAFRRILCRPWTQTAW
Procedure: To evaluate the activity of compounds in radioligand binding assays, Human adrenergic α2B receptor obtained from recombinant cell membrane from Milipore. Binding experiments were carried out in Tris-HCl buffer (50 mM Tris-HCl buffer, pH 7.4, 5 mM Mgcl2, 1 mM Cacl2, 0.2% BSA) as recommended by Milipore. […] Non-specific binding was estimated in the presence of 10 μM Rauwolscine. […] Compounds were screened at various concentrations, using 1% DMSO as vehicle. Biochemical assay results are presented as the percent Inhibition of specific binding in Table B1b, or estimated Ki values in Table B1c.

[3] = target: T3, Human adrenergic α1B receptor (Homo sapiens, UniProt P35368); assay: Radioligand binding, adrenergic α1B (Protocol Group B); conditions: Protocol Group B; for Percentage inhibition of ligand binding, Adrenergic α1B (0.3 μM) / inhibition at 0.3 µM: 0.3 μM compound; for inhibition at 0.3 µM: read-out: Percentage inhibition of ligand binding, Adrenergic α1B (0.3 μM)
T3 sequence (P35368 1-520): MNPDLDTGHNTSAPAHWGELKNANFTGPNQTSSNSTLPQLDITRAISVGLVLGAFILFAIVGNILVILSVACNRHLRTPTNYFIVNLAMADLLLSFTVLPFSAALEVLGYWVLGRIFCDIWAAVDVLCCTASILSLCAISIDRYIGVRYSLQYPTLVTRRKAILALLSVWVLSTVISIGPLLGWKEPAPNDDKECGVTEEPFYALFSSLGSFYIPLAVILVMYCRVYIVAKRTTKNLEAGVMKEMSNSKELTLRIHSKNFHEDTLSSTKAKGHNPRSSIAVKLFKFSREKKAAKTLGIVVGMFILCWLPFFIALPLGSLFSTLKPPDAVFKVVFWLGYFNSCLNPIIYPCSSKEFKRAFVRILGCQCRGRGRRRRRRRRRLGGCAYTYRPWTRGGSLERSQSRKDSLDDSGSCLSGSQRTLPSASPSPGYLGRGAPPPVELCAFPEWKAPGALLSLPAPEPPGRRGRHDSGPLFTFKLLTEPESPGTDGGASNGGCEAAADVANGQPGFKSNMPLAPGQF
Procedure: To evaluate the activity of compounds in radioligand binding assays, Human adrenergic α1B receptor obtained from recombinant cell membrane from Milipore. Binding experiments were carried out in Tris-HCl buffer (50 mM Tris-HCl buffer, pH 7.4, 10 mM Mgcl2, 1 mM EDTA) as recommended by Milipore. Compounds were incubated with 0.3 nM [^3H]Prazosin for 60 min at 25° C. Non-specific binding was estimated in the presence of 10 μM prazosin. Receptor proteins were harvested on 0.33% PEI(poly-ethylenemine) soaked GFC filter mat, the specifically bound [^3H]Prazosin were counted to determine total binding. Compounds were screened at various concentrations, using 1% DMSO as vehicle. percent inhibition of specific binding was determined. Biochemical assay results are presented as the percent Inhibition of specific binding in Table B1b, or estimated Ki values in Table B1c.

| SMILES | Percentage inhibition of ligand binding, Adrenergic α2A (0.1 μM) ([1]; 0.1 μM compound) [%] | Percentage inhibition of ligand binding, Adrenergic α2B (30 nM) ([2]; 30 nM compound) [%] | Percentage inhibition of ligand binding, Adrenergic α1B (0.1 μM) ([3]; 0.1 μM compound) | Percentage inhibition of ligand binding, Adrenergic α2A (0.3 μM) [1] [%] | Percentage inhibition of ligand binding, Adrenergic α2B (10 nM) ([2]; 10 nM compound) [%] | Percentage inhibition of ligand binding, Adrenergic α1B (0.3 μM) [3] [%] | other results |
| --- | --- | --- | --- | --- | --- | --- | --- |
| OC(Cn1c2c(c3cc(F)cc(F)c31)C1CCCN1CC2)c1ccncc1 (single isomer, unassigned) [144c] | 1 | −12 | −2% |  |  |  |  |
| Cc1cc(F)c2c(c1)c1c(n2CC(O)c2ccncc2)CCN2CCCC12 (single isomer, unassigned) [137d] | 15 | 24 | 19% | 16 | 21 | 18 |  |
| Cc1cc(F)c2c(c1)c1c(n2CC(C)(O)c2cccnc2)CC2CCCN2C1 (single isomer, unassigned) [61a] | 9 | 68 | 1% | 34 | 38 | 18 | Percentage inhibition of ligand binding, Adrenergic α2B (0.1 μM) ([2]; 0.1 μM compound): 88% |
| Cc1cc(F)cc2c3c(n(CC(O)c4ccncc4)c12)CCN1CCCC31 (single isomer, unassigned) [136d] | −12 | −8 | −2% |  |  |  |  |
| OCc1ccc2c(c1)c1c(n2CC(O)c2ccncc2)CCN2CCCC12 (stereo not drawn) [compound 29] |  |  |  |  |  |  | inhibition at 0.1 µM ([1]; 0.1 μM compound, read-out: Percentage inhibition of ligand binding, Adrenergic α2A (0.1 μM)): 20%; inhibition at 0.3 µM [1]: 49%; inhibition at 0.01 µM ([2]; 10 nM compound, read-out: Percentage inhibition of ligand binding, Adrenergic α2B (10 nM)): 31%; inhibition at 0.03 µM ([2]; 30 nM compound, read-out: Percentage inhibition of ligand binding, Adrenergic α2B (30 nM)): 66%; inhibition at 0.1 µM ([2]; 0.1 μM compound, read-out: Percentage inhibition of ligand binding, Adrenergic α2B (0.1 μM)): 80%; inhibition at 0.1 µM ([3]; 0.1 μM compound, read-out: Percentage inhibition of ligand binding, Adrenergic α1B (0.1 μM)): 15%; inhibition at 0.3 µM [3]: 46% |
| Cc1ccc2c(c1)c1c(n2CC(OCC2CCC2)c2ccncc2)CCN2CCCC12 (single isomer, unassigned) [138d] | 4 | 11 | 0% |  |  |  |  |
| CN1CCc2c(c3cc(CCO)ccc3n2CC(O)c2ccncc2)C1 (single isomer, unassigned) [140a] | −5 | −12 | −9% |  |  |  |  |
| OC(Cn1c2c(c3cc(Cl)ccc31)C1CCCN1CC2)c1ccncc1 (single isomer, unassigned) [143b] | 93 | 100 | 94% |  |  |  |  |
| Cc1ccc2c(c1)c1c(n2CC(O)c2ccncc2)CCN2CCCC12 (single isomer, unassigned) [Compound No. 178a] |  |  | 73% |  |  |  |  |
| Cc1ccc2c(c1)c1c(n2CC(O)c2ccncc2)CCN2CCCC12 (single isomer, unassigned) [Compound No. 178b] | 55 |  | 69% |  |  |  |  |
| CC(O)(Cn1c2c(c3cc(F)ccc31)C1CCCN1CC2)c1cccnc1 (stereo not drawn) [compound 51] |  |  |  |  |  |  | Ki ([2]; estimated Ki, read-out: Ki α2B): 1.58 nM |

More lines, main results first:

| Percentage inhibition of ligand binding, Adrenergic α2A (0.1 μM) ([1]; 0.1 μM compound) [%] | Percentage inhibition of ligand binding, Adrenergic α2B (30 nM) ([2]; 30 nM compound) [%] | Percentage inhibition of ligand binding, Adrenergic α1B (0.1 μM) ([3]; 0.1 μM compound) | Percentage inhibition of ligand binding, Adrenergic α2A (0.3 μM) [1] [%] | Percentage inhibition of ligand binding, Adrenergic α2B (10 nM) ([2]; 10 nM compound) [%] | Percentage inhibition of ligand binding, Adrenergic α1B (0.3 μM) [3] [%] | SMILES | other results |
| --- | --- | --- | --- | --- | --- | --- | --- |
| −3 | 7 | 1% | −1 | −6 | 6 | Cc1cc(F)c2c(c1)c1c(n2CC(C)(O)c2cccnc2)CCN2CCCC12 (single isomer, unassigned) [79c] |  |
| −7 | 3 | −4% | 5 | −7 | 1 | Cc1cc(F)c2c(c1)c1c(n2CC(C)(O)c2cccnc2)CCN2CCCC12 (single isomer, unassigned) [79d] |  |
| 23 | −9 | 12% |  | −9 |  | CC(O)(Cn1c2c(c3cc(F)cc(Cl)c31)C1CCCN1CC2)c1cccnc1 (single isomer, unassigned) [89a] | inhibition at 0.3 µM [1]: 9%; inhibition at 0.3 µM [3]: 13% |
| 1 | 0 | 7% | 4 | −9 | 4 | Cc1cc(C)c2c(c1)c1c(n2CC(C)(O)c2cccnc2)CCN2CCCC12 (single isomer, unassigned) [44c] |  |
| 7 | 13 | 5% | 0 | 17 | 6 | OC(Cn1c2c(c3cc(F)ccc31)C1CCCN1CC2)c1ccncc1 (single isomer, unassigned) [18c] | Percentage inhibition of ligand binding, Adrenergic α2B (0.1 μM) ([2]; 0.1 μM compound): 22% |
| 35 |  | 94% and 96% |  |  |  | Cc1ccc2c(c1)c1c(n2CC(O)c2ccncc2)CCN2CCCC12 (single isomer, unassigned) [Compound No. 178c] |  |
